Values of other authors as cited in US20040242698A1, “Analeptic and antidepressant combinations” (Cephalon Inc., priority 2003, published 2004).

Experiments:
[1] = tested on: rats; conditions: Touret et al., 1995, Edgar and Seidel, 1997
[2] = tested on: cats; conditions: Lin et al., 1992
[3] = tested on: canines; conditions: Shelton et al., 1995
[4] = tested on: non-human primates; conditions: Hernant et al, 1991
[5] = tested on: English bulldog sleep disordered breathing model; conditions: sleep apnea model; Panckeri et al, 1996
[6] = tested on: narcoleptic canine; conditions: narcolepsy model; Shelton et al, 1995
[7] = tested on: major depressive disorder; conditions: at 6 weeks

SMILES: NC(=O)C[S+]([O-])C(c1ccccc1)c1ccccc1 (stereo not shown) [Modafinil, 2-(benzhydrylsulfinyl) acetamide]
- wakefulness [1]: promotes wakefulness
- wakefulness [2]: promotes wakefulness
- wakefulness [3]: promotes wakefulness
- wakefulness [4]: promotes wakefulness
- wakefulness [5]: promotes wakefulness
- wakefulness [6]: promotes wakefulness

SMILES: CNCCC(Oc1ccc(C(F)(F)F)cc1)c1ccccc1 (stereo not shown) [fluoxetine]
- response [7]: about 50%
